The test system of data set [1] is C. glabrata ATCC 2001 (strain H) biofilm. Description: Biofilm disruption assay (XTT, SMIC90), POS and EBA. The settings on record: drug alone. It is filed as cell-based, Candida glabrata. As to the method: (§1) Biofilm disruption assays. […] Biofilm assays were performed in 96-well plates using XTT [2,3-bis(2-methoxy-4-nitro-5-sulfophenyl)-2H-tetrazolium-5-carboxanilide] to measure the viability of the biofilm as previously described. An overnight culture of yeast was grown at 35° C. in YEPD medium with shaking at 200 rpm. The overnight culture was diluted in RPMI 1640 medium to an OD600 between 0.12 and 0.15 to make a working stock. Working stock was transferred to the 96-well plate in 100 μL aliquots, leaving one column empty for the sterile control. The plates were incubated at 37° C. for 24 h to allow formation of the biofilm. The medium and planktonic cells from the plate were then aspirated. PBS was then used to wash any remaining planktonic cells off of the biofilm wells. 100 μL of PBS was aliquoted into wells and then removed. The wells were washed 3 times with PBS. […] Plates were incubated at 37° C. for 24 h. Finally, the plates were washed 3 times with PBS before adding 100 μL of XTT dye. The XTT was prepared by dissolving XTT at 0.5 mg/mL concentration in sterile PBS. Before adding to a plate, 1 μL of 10 mM menadione in acetone was added to 10 mL of the 0.5 mg/mL solution of XTT. After addition of XTT (containing menadione), the plates were incubated at 3 h at 37° C. in the dark. 80 μL of liquid from each well was transferred to a new plate. Plates were then read with a SpectraMax M5 plate reader (Molecular Devices, Sunnyvale, Calif., USA) for absorbance at 450 nm. For these experiments, we determined the sessile MIC (SMIC90), which is defined as the drug concentration required to inhibit the metabolic activity of biofilm by 90% compared to the growth control. The SMIC90 values were used to calculate the FICI as described above (TABLE 10). The plates used to determine the SMIC90 are provided in FIGS. 91A-H. Each assay was performed in duplicate.

For data set [2], the system named is C. albicans ATCC 10231 (strain B) biofilm. Described as above. Type of data set: cell-based, Candida albicans. Conditions: drug alone. As for the experimental part: as §1
The subject of the next data set is HaCaT cells. In words: Mammalian cytotoxicity (resazurin cell viability), POS and EBA. Type of data set: cell-based, human. The settings on record: EBA alone at 25 μg/mL. As to the method:
(§2) To examine whether the inhibitory effect of the antifungal and antihistamine combinations is specific to fungal cells, the combinations were tested with 4 mammalian cell lines: A459, BEAS-2B, HEK-293, and HaCaT. […] The assays were done in 96-well plates. A549 and BEAS-2B cells were plated at a density of 3×10^3 cells/mL, HaCaT were plated at 2×10^4 cells/mL, and HEK-293 cells were plated at 1×10^4 cells/mL as determined by using a hemacytometer. […] All assays were done in quadruplicate.
On the technique in general: Resazurin is reduced to fluorescent resorufin, in cell work by metabolically active cells.

The subject of another data set is A549 cells. The description is as above. Type of data set: cell-based, human. Conditions: EBA alone at 25 μg/mL. As for the experimental part: as §2
A further data set relates to HEK-293 cells. Described as above. It is filed as cell-based, human. The settings on record: EBA alone at 25 μg/mL. As for the experimental part:
as §2

For another data set, the system named is BEAS-2B cells. The description is as above. It is filed as cell-based, human. The settings on record: EBA alone at 25 μg/mL. As to the method: as §2
Data set [3] relates to C. glabrata ATCC 2001 (strain H). In words: MIC and checkerboard assay, azoles + antihistamines. It is filed as cell-based, Candida glabrata. The settings on record: in combination with POS. As to the method: Determination of minimum inhibitory concentration (MIC) values. MIC values were recorded for all antifungals and antihistamines in order to determine the concentration range of compounds to be used in the checkerboard assays.
The MIC assays were done using the broth microdilution method as described in CLSI document M27-A3 with minor modifications. Yeast cultures were started by picking a colony from a PDA plate stored at 4° C. The colonies were grown in YEPD medium overnight at 35° C. with shaking at 200 rpm. In a 96-well plate compounds were diluted lengthwise along the plate in serial 2-fold dilutions in the RPMI 1640 medium. The yeast cultures were diluted in RPMI 1640 medium to an OD600 within the range of 0.12 and 0.15 (˜1×10^6 cells/mL). The fungal cells were further diluted by taking 25 μL of fungal cells and adding them to 10 mL of RPMI 1640 medium before adding 100 μL to plate (200 μL total volume). The plates were incubated at 35° C. for 48 h. Visual inspection of the wells for no growth was used to determine the MIC. All compounds were tested in duplicate (TABLES 6 and 7).
Checkerboard assays were done as previously described to determine the fractional inhibitory concentration index (FICI). 2-fold dilutions of the azole drug were made in RPMI 1640 medium lengthwise along the plate. For the antihistamine, 2-fold serial dilutions were made in sterile tubes with RPMI 1640 medium, then aliquoted into the plate. […] The maximal amount was used in the checkerboard assays if complete inhibition was not observed in the MIC assays. Cultures were started by picking a colony from a plate and growing in YEPD medium overnight at 35° C. with shaking at 200 rpm. Cultures were diluted in RPMI 1640 medium to an OD600 between 0.12 and 0.15 (˜1×10^6 cells/mL). Cells were then further diluted by taking 25 μL of cell suspension and adding to 10 mL of RPMI 1640 medium. After the drugs were added to the plate with 100 μL of medium, 100 μL of fungal cells were added. Plates were incubated at 35° C. for 48 h and visual inspection was used to determine wells with no growth. All experiments were carried out in duplicate. The FICI was calculated based on the formula below. The combinational effect of the 2 tested compounds were considered synergistic (SYN) if FICI≤0.5, additive (ADD) if 0.5<FICI≤4, and antagonistic if FICI>4 (TABLES 6-9).

In data set [4] the test system is C. albicans ATCC 10231 (strain B). Description: Time-kill assay, POS and EBA. It is filed as cell-based, Candida albicans. Conditions: POS + EBA combination at 1×MIC. As for the experimental part:
(§3) The protocol for time-kill assays followed methods previously described with minor modifications. Yeast cultures were grown overnight in YEPD medium at 35° C. with shaking at 200 rpm. A working stock of fungal cells was made by diluting cultures in 1640 medium to an OD600 of 0.125 (˜1×10^6 CFU/mL). From the working stock, 100 μL of cells was added to 4.9 mL of RPMI 1640 medium in sterile culture tubes, making the starting fungal cell concentration ˜1×10^5 CFU/mL. Drug was then added to the fungal cells. […] Treated fungal cultures were incubated in the culture tubes at 35° C. with 200 rpm shaking for 24 h. Samples were aliquoted from the different treatments at regular time points (0, 3, 6, 9, 12, and 24 h) and plated in duplicate. For each time point, cultures were vortexed, 100 μL of culture was aspirated, and 10-fold serial dilutions were made in sterile ddH2O. From the appropriate dilutions, 100 μL of fungal suspension was spread on PDA plates and incubated at 35° C. for 48 h before colony counts were determined. At 24 h, 50 μL of 1 mM resazurin in phosphate buffered saline (PBS) was added to the treatments and incubated at 35° C. with 200 rpm shaking for 2 h in the dark for visual inspection. […] Experiments were performed in duplicate.

The test system of data set [5] is C. glabrata ATCC 2001 (strain H). Description: Time-kill assay, POS and EBA. The settings on record: POS + EBA combination at 1×MIC. Type of data set: cell-based, Candida glabrata. As to the method:
as §3

For data set [6] the following is noted: aqueous assay medium, from DMSO stock.

In the case of `C[C@@H]1[C@H](O)[C@@H](C)/C=C/C=C/C=C/C=C/C=C/C=C/C=C/[C@H](O[C@@H]2O[C@H](C)[C@@H](O)[C@H](N)[C@@H]2O)C[C@@H]2O[C@](O)(C[C@@H](O)C[C@@H](O)[C@H](O)CC[C@@H](O)C[C@@H](O)CC(=O)O[C@H]1C)C[C@H](O)[C@H]2C(=O)O` [AMB, amphotericin B], the SMIC90 in data set [1] is 4 µg/mL; in [2], above 32 µg/mL.
As for `CC(C)(C)c1ccc(C(=O)CCCN2CCC(OC(c3ccccc3)c3ccccc3)CC2)cc1` [EBA, ebastine], the cell survival in the data set on HaCaT cells, in the data set with A549 cells, in the data set with HEK-293 cells and in the data set with BEAS-2B cells was around 0% each time. Moreover, the FICI in [3] came out at 0.05. For the same compound, the “CFU/mL through 24 h” value in data set [4] and in data set [5] was 10^6 CFU/mL each time.
Turning to `CC(C)(C)c1ccc(C(O)CCCN2CCC(C(O)(c3ccccc3)c3ccccc3)CC2)cc1` (stereo not shown) [TERF, terfenadine], in data set [6], the “maximal concentration where no precipitation was observed” value was determined as 42.7 µg/mL.

The record behind these values is patent US20190015400A1, “Antifungal Compositions” (priority 2017, published 2019).
